According to patent US20260041620A1, “NOVEL AMINO ACID BASED SALTS, COMPOSITIONS AND METHODS FOR TREATING SKIN AND IMPROVING SKIN REJUVENATION AND LONGEVITY” (Sytheon Ltd, priority 2023, published 2026):

Experiments:
Type I Collagen = Type I Collagen Assay (ELISA, fibroblast culture medium); type: cell-based, human; details: for Type I Collagen C-Peptide: 48 hours, untreated 1255 ± 83
Method: (§1) In the study, human neonatal fibroblasts were seeded into the individual wells of a 48-well plate in 0.25 ml of Fibroblasts Growth Media (FGM) and incubated overnight at 37±2° C. and a 5±1% CO2 atmosphere. On the following day the media was removed via aspiration to eliminate non-adherent cells and replaced with 0.5 ml of fresh FGM. The cells were grown until confluent, with a media change every 48 to 72 hours. Upon reaching confluency the cells were treated for 24 hours with Dulbecco's Modified Eagle's medium (DMED) supplemented with 1.5% Fetal Bovine Serum (FBS) to wash out any effects from the growth factors included in the normal culture media. After this 24-hour wash out period the cells were treated with the test materials at the specified concentrations dissolved in FGM with 1.5% FBS. Sodium ascorbate (10 ug/ml) was used as a positive control. Untreated cells (negative controls) only received DMEM with […], The cells were incubated for 48 hours and at the end of the incubation period, cell culture medium was collected and either stored frozen (−75 C) or assayed immediately. Materials were tested in triplicate.
A series of type I collagen peptide standards was prepared ranging from 0 ng/ml to 640 ng/ml. An ELISA microplate was prepared by removing any unneeded strips from the plate frame followed by the addition of 100 μl of peroxidase labelled anti-procollagen type I-C peptide antibody to each well used in the assay. A 20 μl sample of each of the collected tissue culture media or a standard was then added to appropriate wells and the microplate covered and allowed to incubate for 3±0.25 hours at 37 C. Following incubation, the wells were aspirated and washed three times with 400 μl of wash buffer. After the last wash was remove 100 μl of peroxidase substrate solution (hydrogen peroxide+tetramethylbenzidine as a chromogen) was added to each well and the plate incubated for 15±4 minutes at room temperature. Following this incubation, 100 μl of stop solution (1 N sulfuric acid) was added to each well and the plate read using a microplate reader at 450 nm.
(§2) To quantify the amount of each substance present, a standard curve was generated using known concentrations of each substance. A regression analysis was performed to establish the line that best fit those data points. Absorbance values for the test materials and untreated samples were used to estimate the amount of each substance present in each sample. Treatment means were compared using ANOVA, with an […] per treatment. Statistical significance was set at p≤0.05.

Type IV Collagen = Type IV Collagen Assay (ELISA, fibroblast culture medium); type: cell-based, human; details: for Type IV Collagen C-Peptide: 48 hours, untreated 7.76 ± 0.92
Method: as §1
A series of type IV collagen peptide standards was prepared ranging from 0 ng/ml to 640 ng/ml. 100 μl of each standard or of each of the collected tissue culture media were added to the wells of type IV collagen ELISA plates. The plates were then incubated at 37° C. for 1 hour. After incubation, the ELISA plates were then washed twice with wash buffer, followed by the addition of 100 μl of detection antibody solution. The ELISA plates were then incubated for 1 hour at 37° C. Following incubation, the ELISA plates were washed with wash solution followed by the addition of 100 μl HEP conjugate solution and incubated at 37° C. for 30 minutes. Following the latter incubation, the ELISA plates were again washed and 100 μl of the substrate solution was added to each well and the well plates incubated for 10-30 minutes at room temperature to allow the color generation reaction to occur. At the end of the color generation reaction 100 μl of stop solution (1 N sulfuric acid) was added to each well and the plates read at 460 nm using a plate reader.
as §2

Prolidase (PEPD) = assay: Prolidase Assay (ELISA); type: cell-based; details: for Prolidase: untreated 74 ± 3
Method: A series of standards was prepared and 50 μl aliquots of the standards and the test samples identified in Table 6 were added to wells of a prolidase ELISA plate, followed by the addition of 100 μl […] conjugated anti-prolidase antibody. The plate was then incubated at 37° C. for 1 hour, Following incubation, the ELISA plate was washed and 100 μl of substrate solution was added to each well and the well-plate incubated for 10-15 minutes at room temperature to allow the color generation reaction to occur. At the end of the color generation reaction, 50 μl of stop solution (1 N sulfuric acid) was added to each well and the plates read at 460 nm using a plate reader.
as §2

NFκB = assay: NF-κB luminance reporter assay, TNFα activated; type: cell-based, Murine
Text: NFκB expression was quantified from the luminance signals released from cells treated with the test products and the control (untreated).

[1] = tested on: EpiDermFT (Mattek full thickness) dermal substitutes; details: versus control
Method: The experiments were performed using EpiDermFT (Mattek full thickness) dermal substitutes. Sequencing data was generated by Azenta Life Sciences (HiSeq 2×150 bp) and analyses performed using raw FastQ files provided by Azenta.

COX-2 = target: T1, COX-2 (Homo sapiens, UniProt P35354)
T1 sequence (P35354 18-604): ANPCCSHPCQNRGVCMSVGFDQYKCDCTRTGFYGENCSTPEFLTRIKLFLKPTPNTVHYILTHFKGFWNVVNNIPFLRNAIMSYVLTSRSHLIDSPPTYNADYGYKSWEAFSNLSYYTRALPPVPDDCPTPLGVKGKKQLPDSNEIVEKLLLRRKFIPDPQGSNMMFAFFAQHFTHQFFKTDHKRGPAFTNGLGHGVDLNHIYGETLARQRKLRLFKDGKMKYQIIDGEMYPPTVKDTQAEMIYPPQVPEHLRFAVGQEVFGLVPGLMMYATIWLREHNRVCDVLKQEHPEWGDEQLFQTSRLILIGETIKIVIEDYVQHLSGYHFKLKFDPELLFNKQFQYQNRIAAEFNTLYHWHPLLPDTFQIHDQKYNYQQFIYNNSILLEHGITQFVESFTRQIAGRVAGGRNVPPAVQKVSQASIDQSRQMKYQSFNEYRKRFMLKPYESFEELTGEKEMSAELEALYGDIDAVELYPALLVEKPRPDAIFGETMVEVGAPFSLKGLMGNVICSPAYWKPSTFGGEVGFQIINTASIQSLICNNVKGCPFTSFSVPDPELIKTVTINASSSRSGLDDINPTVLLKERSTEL
Method: A 0.1 gram sample of each test material was dissolved in 1 mL propanediol make a stock solution, each of which was subject to 1 to 2 serial dilutions using buffer for use in determining the IC50 Testing and analysis was performed in accordance with the protocol of the COX-2 Kt (Cayman Catalog #701080) (Cayman catalog #62160).

[2] = concentrations as high as 100 μg/ml

Compound | Type I Collagen C-Peptide (Type I Collagen; 10 μg/ml) | Type I Collagen C-Peptide (Type I Collagen; 30 μg/ml) | Type IV Collagen C-Peptide (Type IV Collagen; 10 μg/ml) | Type IV Collagen C-Peptide (Type IV Collagen; 30 μg/ml) | Prolidase (Prolidase (PEPD); 10 μg/ml) | Prolidase (Prolidase (PEPD); 20 μg/ml) | Prolidase (Prolidase (PEPD); 30 μg/ml) | Prolidase (Prolidase (PEPD); 60 μg/ml) | expression of FABP3 [1] | expression of late differentiation marker gene FLG [1] | expression of late differentiation marker gene IVL [1] | expression of late differentiation marker gene LOR [1] | expression of late differentiation marker gene SPINK5 [1] | expression of late differentiation marker gene TGM1 [1] | COX-2 IC50 (COX-2) | other results
CCCC(=O)NCCCC[C@H](NC(=O)CCC)C(=O)[O-].CCCC(=O)NCCCC[C@H](NC(=O)CCC)C(=O)[O-].[Zn+2] [Zn di-(di-n-butyryl lysinate), Zinc di-(di-n-butyryl lysinate)] | 1328 ± 48 ng/mL | 1958 ± 125 ng/mL | 13.41 ± 1.40 ng/mL | 26.98 ± 1.37 ng/mL | 66 ± 4 ng/mL | 104 ± 5 ng/mL | 115 ± 8 ng/mL | 145 ± 5 ng/mL | repressed | increased expression | increased expression | increased expression | increased expression | increased expression | 82.3 mg/L | Type I Collagen C-Peptide (Type I Collagen; 20 μg/ml): 1541 ± 94 ng/mL; boost of Collagen I vs control (Type I Collagen; 30 μg/ml): ~50%; boosting of Collagen IV versus control (Type IV Collagen; 20 μg/ml): ~250%; Type IV Collagen C-Peptide (Type IV Collagen; 20 μg/ml): 21.19 ± 1.47 ng/mL; boosting of Collagen IV versus control (Type IV Collagen; 30 μg/ml): ~320%; increase of prolidase vs control (Prolidase (PEPD); 60 μg/ml): 50%; IC50 in inhibiting NFκB (NFκB; C2C12 reporter cells, TNFα as activator): 70.4 mg/L; fold more effective than Na butyrate in inhibiting NFκB (NFκB; ratio of IC50 values): about 110 fold; activity of S100 calcium binding protein P (S100P) [1]: strongly increased; activity of late cornified envelope 3D (LCE3D) [1]: strongly increased; activity of late cornified envelope 3E (LCE3E) [1]: strongly increased; activity of small protein reach repeat (SPRR28) [1]: strongly increased; expression of early differentiation marker gene DSC1 [1]: increasing the expression; expression of early differentiation marker gene KRT1 [1]: increasing the expression; expression of early differentiation marker gene KRT10 [1]: increasing the expression
CCCC(=O)NCCCCC(NC(=O)CCC)C(=O)[O-].CCCC(=O)NCCCCC(NC(=O)CCC)C(=O)[O-].[Ca+2] (stereo not shown) [Ca di-(di-n-butyryl lysinate), calcium di-(di-n-butyryl lysinate)] | – | – | – | – | – | – | – | – | repressed | increased expression | increased expression | increased expression | increased expression | increased expression | 111.0 mg/L | activity of late cornified envelop (LCE2D) [1]: strongly increased; activity of late cornified envelope (LCE3A) [1]: strongly increased
CCCC(=O)[O-].[Na+] [Sodium butyrate, reference compound] | 1445 ± 168 ng/mL | 1262 ± 95 ng/mL | 9.29 ± 0.70 ng/mL | 7.61 ± 0.70 ng/mL | 54 ± 3 ng/mL | 47 ± 6 ng/mL | 37 ± 5 ng/mL | 33 ± 5 ng/mL | – | – | – | – | – | – | – | Type I Collagen C-Peptide (Type I Collagen; 60 μg/ml): 1196 ± 175 ng/mL; Type I Collagen C-Peptide (Type I Collagen; 100 μg/ml): 1277 ± 216 ng/mL; Collagen I boosting activity (Type I Collagen; [2]): didn't show any; Type IV Collagen C-Peptide (Type IV Collagen; 60 μg/ml): 11.88 ± 1.37 ng/mL; Type IV Collagen C-Peptide (Type IV Collagen; 100 μg/ml): 12.80 ± 1.83 ng/mL; Collagen IV boosting activity (Type IV Collagen; [2]): didn't show any; decrease of prolidase vs control (Prolidase (PEPD); 60 μg/ml): 50%; IC50 (NFκB; Mus musculus, C2C12 reporter cells, TNFα as activator, read-out: IC50 in inhibiting NFκB): 7700 mg/L
